The values below come from patent US4232007A, “Oral antilipemic agents” (Taiho Pharmaceutical Company Ltd., priority 1975, dated 1980).

The LD50 is the dose expected to kill half of the subjects tested. High values mean lower toxicity, low ones greater toxicity.

One data set relates to plasma. The experiment in a line: Recalcification test. In kind it is biochemical, rat. The following applies: 58 sec. at 0 μg. The protocol:
A 0.5 ml quantity of 0.1 M sodium citrate is added to 4.5 ml of blood of rat to obtain plasma. […] Thereafter 0.1 ml of 0.025 M CaCl2 saline solution is added to coagulate the blood sample.

For the next data set, the system named is anticoagulant activity. The following applies: cited from earlier work.
Data set [1] has as its system lipids in blood. The following applies: known drugs, background; cited from earlier work.
A further data set relates to Rat. Nature of the data set: Acute toxicity test. The class given is in vivo. The following applies: for LD50: 72 hours after administration.
Data set [2] concerns lipids in blood. Nature of the data set: Reduction of lipids in blood of rats given surfactant Triton WR-1339, oral administration. The class given is in vivo, rat. The following applies: rats given Triton WR-1339 200 mg/kg i.v., compound 50 mg/kg oral; for Free cholesterol: normal rat 25.7 ± 3.7, rat given surfactant 114.2 ± 28.8; for β-Lipoprotein: normal rat 44.3 ± 1.3, rat given surfactant 141.7 ± 28.8; for Triglyceride: normal rat 44.7 ± 3.5, rat given surfactant 780.1 ± 354.5; for Total cholesterol: normal rat 89.9 ± 10.4, rat given surfactant 235.3 ± 41.7; for Total lipid: normal rat 220 ± 12, rat given surfactant 1033 ± 330. On the procedure: A 100 g quantity of the methyl ester of polyglutamic acid (average molecular weight: 100,000) is dissolved in dichloroethane to a concentration of 10 wt.%. To the solution is added a mixture of 70 ml of 2 N sodium hydroxide solution, 140 ml of methanol and 140 ml of isopropanol,and the resulting mixture is stirred at room temperature for about 8 hours to effect demethylation. The product is then passed through a molecular sieve (Sephadex G-200) for the classification of molecular weight to separate a portion ranging from 80,000 to 100,000 in molecular weight (average molecular weight: 90,000). The separated portion is concentrated under reduced pressure and divided into two portions of equivalent weight. To one of the portions is added methanol and the precipitate formed is separated by filtration and dried to obtain the sodium salt of polyglutamic acid. To the other portion is added concentrated hydrochloric acid until the pH thereof reaches 4, then the solution is cooled with ice, whereby a precipitate is formed. The precipitate is separated by filtration, washed with diluted hydrochloric acid, thereafter with methanol and dried to obtain polyglutamic acid. Each powder (200 mg) of polyglutamic acid and sodium salt thereof thus obtained is mixed with 290 mg of milk sugar, 500 mg of corn starch and 10 mg of hydroxypropyl cellulose and the mixtures obtained are granulated respectively. The granules are suspended in water. Two kinds of the suspensions are orally administered to 7 rats in a dose of 50 mg/kg, respectively, to determine the reduction of lipids in blood.
The separated portion is concentrated under reduced pressure, methanol is added to the concentrate and the resulting precipitate is filtered off and dried to obtain the sodium salt of the copolymer of glutamic acid and aspartic acid. With the powder (200 mg) thus obtained are mixed 290 mg of milk sugar, 500 mg of corn starch and 10 mg of hydroxypropyl cellulose. The mixture is granulated and the granules are suspended in an isotonic sodium chloride solution.

The mark [3] stands for this setting: amount 100 μg, ditto mark = No coagulation.

Regarding dextran sulfate, the Coagulation time in the data set on plasma (amount 0.1 μg) is 57 s; in the data set on plasma (amount 0.3 μg), 62 s; with plasma (amount 0.5 μg) it was 61 s; in the data set on plasma (amount 1 μg) it was 117 s; in the data set on plasma (amount 10 μg), 172 s; in the data set on plasma (setting [3]), “No coagulation”. Also, the “anticoagulant activity as a side effect” value in the data set on anticoagulant activity is “very high anticoagulant activity”. For the same substance, the “reducing lipids in blood” value in the data set with lipids in blood [1] is given as “effective in reducing lipids in blood”.
On to heparin, for which the Coagulation time was 62 s in the data set on plasma (amount 0.1 μg); 145 s in the data set with plasma (amount 0.3 μg); 168 s with plasma (amount 0.5 μg); 285 s in the data set on plasma (amount 1 μg); “No coagulation” with plasma (amount 10 μg). For the same substance, in the data set on anticoagulant activity, the “anticoagulant activity as a side effect” value was “very high anticoagulant activity”. The “reducing lipids in blood” value with lipids in blood [1] is “effective in reducing lipids in blood”. The LD50 with Rat (intravenous) was found to be 730 mg/kg; with Rat (oral), 1950 mg/kg.
As for sodium salt of polyglutamic acid, in the data set with lipids in blood [2], the Free cholesterol is listed as 40.0 ± 11.4 mg/dl of plasma, the β-Lipoprotein is given as 63.4 ± 16.9 mg/dl of plasma, the Triglyceride is recorded as 92.0 ± 42.8 mg/dl of plasma and the Total cholesterol was 121.8 ± 18.9 mg/dl of plasma. Further, the Total lipid in the data set on lipids in blood [2] is recorded as 393 ± 66 mg/dl of plasma.
Take polyglutamic acid: the Coagulation time in the data set on plasma (amount 0.1 μg) turned out to be 55 s; with plasma (amount 0.3 μg), 58 s; with plasma (amount 0.5 μg) it was 56 s; in the data set with plasma (amount 1 μg), 62 s; with plasma (amount 10 μg), 58 s; in the data set with plasma (setting [3]) it was 62 s. Also, the Coagulation time in the data set with plasma (amount 500 μg, ditto mark = No coagulation) was 100 s; in the data set on plasma (amount 1000 μg, ditto mark = No coagulation), 151 s; with plasma (amount 2000 μg, ditto mark = No coagulation), 250 s. Also, in the data set on lipids in blood [2], the Free cholesterol was 38.8 ± 11.7 mg/dl of plasma. In the data set on lipids in blood [2], the β-Lipoprotein is on record as 61.9 ± 29.0 mg/dl of plasma. The Triglyceride with lipids in blood [2] was 103.3 ± 67.2 mg/dl of plasma. Besides, the Total cholesterol in the data set on lipids in blood [2] is reported as 118.1 ± 35.3 mg/dl of plasma. Besides, the Total lipid in the data set with lipids in blood [2] is reported as 373 ± 132 mg/dl of plasma. In addition, the “toxicity compared with heparin” value with Rat (Table 2) is on record as “much lower toxicity than heparin”. The LD50 is 2050 mg/kg in the data set with Rat (intravenous) and 6000 mg/kg in the data set with Rat (oral).
